# From paper PMC9141032 (International Journal of Molecular Sciences, 2022)
# Values joined by “and” are separate entries in the source; they are usually repeats but may differ in a detail not shown here. Equal entries are not always repeated.
# Legend:
# culture cells = system: culture cells; design: method as in ref 32, 33 = [32]; 32. Escolano C. Pallás M. Griñán-Ferré C. Abás S. Callado L.-F. García-Sevilla J.A. Synthetic I 2 Imidazoline Receptor Ligands for Prevention or Treatment of Human Brain Disorders Patent WO 2019/12185 || [33]; PMID 32150414; doi:10.1021/acs.jmedchem.9b02080; 33. Abás S. Rodríguez-Arévalo S. Bagán A. Griñán-Ferré C. Vasilopoulou F. Brocos-Mosquera I. Muguruza C. Pérez B. Molins E. Luque F.J. Bicyclic α-Iminophosphonates as High Affinity Imidazoline I 2 Rec; settings: plethora of culture cells; cited from earlier work
# [1] = Metabolic stability in human liver microsomes; type: in vitro ADME; settings: HLM
# Description: In the assay, the reaction was initiated by adding HLM (1 mg/mL) to an equal volume of buffer solution containing the test compound and cofactors at the proper concentrations. Reactions without NADPH were also incubated to rule out non-NADPH metabolism or chemical instability in the incubation buffer. Verapamil was included as a positive control to monitor incubation course. All reactions were terminated using 60 µL of ice-cold acetonitrile at 0, 5, 15, 30, 45, and 60 min. The plates were centrifugated at 3500 rpm for 15 min. All experiments were conducted in triplicate. Samples were monitored for B06 disappearance by LC-MS in MRM mode according to a quantitation method for B06. […]
# concentration 1 μM, protein concentration 1 mg/mL, NADPH, 1.3 mM. Potassium phosphate buffer (100 mM) pH 7.4 and human liver microsomes, were purchased from Beckton Dickinson. […]
# needed for the study was Beckman Coulter Refrigerated centrifuge, Agilent 1290 Infinity Liquid Chromatograph, CTC Analytics PAL HT‐xt injector, Api4000 Mass Spectrometer. Total incubation […]
# Analysis: For the data analysis the area ratio of analyzed versus internal standard was used to calculate the percentage of remaning compound at each incubation time. The natural logarithm of […]
# the following equation: Half‐life (T1/2) (min) = 0.693/k (the slope of the natural log of the percent remaining versus time). Intrinsic clearance was determined by the following equation: Clint H = Ln 2/t1/2 (min) x volume incubation (mL)/microsomal protein (mg) x 45 (MPPGL) 1500 g human liver/ 70 Kg human body weight. Units for CLint are usually expressed as mL/min/mg microsomal protein, MPPGL = referred to as mg microsomal protein per gram liver.
# Table S1. Summary of LC‐MS conditions
# Table S2. Percentage of verapamil remaining at each incubation time […]
# [2] = In vivo pharmacokinetics in plasma; design: species or system mouse
# Description: After treatment, mice were euthanized, and the plasma and brain were collected.
# Male CD1 mice were supplied by the Laboratory Animal Service of the University of Granada (Granada, Spain) and housed in the Animal Facilities of the Center of Biomedical Investigation of the University of Granada. […] Calculations were performed using noncompartmental analysis of plasma data after intraperitoneal injection by means of PK Solver 2.0.
# Basic PK parameters were calculated.
# [3] = Chemical stability in buffers at pH 2, 5 and 7.4
# [4] = design: method as in ref 33 = [33]; PMID 32150414; doi:10.1021/acs.jmedchem.9b02080; 33. Abás S. Rodríguez-Arévalo S. Bagán A. Griñán-Ferré C. Vasilopoulou F. Brocos-Mosquera I. Muguruza C. Pérez B. Molins E. Luque F.J. Bicyclic α-Iminophosphonates as High Affinity Imidazoline I 2 Rec; settings: 1% DMSO and 99% PBS buffer; cited from earlier work
# mice [5] = system: mice; design: method as in ref 33 = [33]; PMID 32150414; doi:10.1021/acs.jmedchem.9b02080; 33. Abás S. Rodríguez-Arévalo S. Bagán A. Griñán-Ferré C. Vasilopoulou F. Brocos-Mosquera I. Muguruza C. Pérez B. Molins E. Luque F.J. Bicyclic α-Iminophosphonates as High Affinity Imidazoline I 2 Rec; settings: repeated administration of 20 mg/kg for 5 days; cited from earlier work
# mice [6] = assay: Toxicity observation during the PK study; type: in vivo, mouse; settings: single dose 10 mg/kg intraperitoneally
# Description: Thus, two-month-old mice were treated with a single dose of 10 mg/kg intraperitoneally in ten groups (n = 3), for consecutive times: 0, 5, 15, 30 min and 1, 2, 4, 6, 8, 24 h. After treatment, mice were euthanized, and the plasma and brain were collected.
# [7] = male, CD1, mouse, ip, plasma, mice, 10 mg/kg intraperitoneal
# [8] = plasma, mice, 10 mg/kg intraperitoneal
smiles,measurement,setting,value
"CCOP(=O)(OCC)[C@]1(c2ccccc2)N=C[C@H]2C(=O)N(c3ccc(F)c(Cl)c3)C(=O)[C@H]21 (racemic) [B06, diethyl (1RS,3aSR,6aSR)-5-(3-chloro-4-fluorophenyl)-4,6-dioxo-1-phenyl-1,3a,4,5,6,6a-hexahydropyrrolo[3,4-c]pyrrole-1-phosphonate]",cytotoxicity,culture cells,devoid of cytotoxicity
same,hepatic clearance category,[1]; classification bands low/medium/high,medium clearance
same,% compound remaining,"[1]; minus NADPH, 0 min",103.2 ± 13.82%
same,% compound remaining,"[1]; minus NADPH, 60 min",75.30 ± 1.27%
same,% compound remaining,"[1]; plus NADPH, 0 min",100.00 ± 14.46%
same,% compound remaining,"[1]; plus NADPH, 5 min",98.60 ± 9.11%
same,% compound remaining,"[1]; plus NADPH, 15 min",77.90 ± 13.20%
same,% compound remaining,"[1]; plus NADPH, 30 min",54.10 ± 6.84%
same,% compound remaining,"[1]; plus NADPH, 45 min",41.3 ± 5.83%
same,% compound remaining,"[1]; plus NADPH, 60 min",29.40 ± 3.69%
same,half-life at 1 μM,"[1]; human, human liver microsomes, pH 7.4, 1 µM, 1 mg/mL protein",28.4 min
same,AUC(0-inf),[2]; [7],3050 ng·h/mL
same,Tmax,[2]; [7],15 min
same,Cmax,"[2]; male, CD1, mouse, ip, plasma, mice, 10 mg/kg intraperitoneal, single dose",950 ± 624 ng/mL
same,AUC(0-t),"[2]; male, CD1, mouse, ip, plasma, mice, 10 mg/kg intraperitoneal, read-out: AUC0–1440 (converted)",2950 ng·h/mL
same,half-life,"[2]; male, CD1, mouse, plasma, ip, 10 mg/kg, mice, 10 mg/kg intraperitoneal",313 min
same,Cl (plasma clearance),[2]; [8],0.054 ± 0.011 (mg/kg)/(μg/mL)
same,Vz (volume of distribution),[2]; [8],24.56 ± 4.74 (mg/kg)/(μg/mL)
same,t1/2,"[2]; plasma, mice, 10 mg/kg intraperitoneal, 10 mg/kg",312.81 min
same,maximum mean concentration in plasma as % of the drug administered,[2]; single dose intraperitoneally,≤ 1%
same,% B06 Remaining,"[3]; pH 2, 37 °C, 0 min",100 ± 8.84%
same,% B06 Remaining,"[3]; pH 2, 37 °C, 5 min",104 ± 9.81%
same,% B06 Remaining,"[3]; pH 2, 37 °C, 15 min",98 ± 11.30%
same,% B06 Remaining,"[3]; pH 2, 37 °C, 30 min",106 ± 9.97%
same,% B06 Remaining,"[3]; pH 2, 37 °C, 60 min",112 ± 11.2%
same,% B06 Remaining,"[3]; pH 2, 37 °C, 120 min",96 ± 13.6%
same,chemical stability,"[3]; pH 2, up to 120 min",stable at pH 2
same,chemical stability,[3]; pH 5,stable up to 1 h
same,% B06 Remaining,"[3]; pH 5, 37 °C, 0 min",100 ± 3.3%
same,% B06 Remaining,"[3]; pH 5, 37 °C, 5 min",97 ± 6.5%
same,% B06 Remaining,"[3]; pH 5, 37 °C, 15 min",100 ± 3.9%
same,% B06 Remaining,"[3]; pH 5, 37 °C, 30 min",87 ± 11.3%
same,% B06 Remaining,"[3]; pH 5, 37 °C, 60 min",98 ± 10.1%
same,% B06 Remaining,"[3]; pH 5, 37 °C, 120 min",75 ± 8.5%
same,% of the compound that suffered structural changes,"[3]; pH 5, between 1 h and 2 h",25%
same,% B06 Remaining,"[3]; pH 7.4, 37 °C, 0 min",100 ± 2.9%
same,% B06 Remaining,"[3]; pH 7.4, 37 °C, 15 min",77 ± 3.8%
same,% B06 Remaining,"[3]; pH 7.4, 37 °C, 30 min",75% and 75 ± 5.6%
same,% B06 Remaining,"[3]; pH 7.4, 37 °C, 60 min",53 ± 6.4%
same,% B06 Remaining,"[3]; pH 7.4, 37 °C, 120 min",19% and 19 ± 1.9%
same,% of the compound transformed,"[3]; pH 7.4, 15 min",25%
same,solubility,[4],92 µM
same,effect on body temperature,mice [5],hypothermia
same,"toxicity in organs or tissues, de visu observation after euthanasia",mice [6],no toxicity in organs or tissues
same,toxicity in the animals,mice [6]; up to 24 h,not toxicity in any of the animals
